Reference: patent US11053239B2, “Compounds as BLC-2-selective apoptosis-inducing agents” (Fochon Pharmaceuticals, Ltd., priority 2017, dated 2021)
pIC50: −log10 of the molar value.

Tests used:
[1] = system: DOHH2 cells; experiment: Cell proliferation assay (MTS), DOHH2 cells; assay type: cell-based; conditions: Homo sapiens, DOHH-2, 120 h, DOHH2 (DSMZ ACC 47) cell proliferation, 5000 cells/well, 120 h, MTS; mechanism-based readout of Bcl-2 inhibition; read-out: DOHH2 IC50
Summary of the method: (§1)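 RS4;11 (30000 cells/well, 72 h) and DOHH2 (5000 cells/well, 120 h) cells in RPMI-1640/10% FBS, treated at 37 °C with compound at 1.5–10000 nM final. Viability by MTS (2 h, SDS stop), absorbance 490 nm minus 650 nm reference; IC50 fitted.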

[2] = system: RS4; 11 cells; experiment: Cell proliferation assay (MTS), RS4; 11 cells; assay type: cell-based; conditions: Homo sapiens, RS4-11, 72 h, RS4; 11 (ATCC CRL-1873) cell proliferation, 30000 cells/well, 72 h, MTS; mechanism-based readout of Bcl-2 inhibition; read-out: RS4; 11 IC50
Summary of the method: as §1

Compound	pIC50 [1]	pIC50 [2]
C[C@@H](CCN1CCS(=O)(=NC2CC2)CC1)Nc1ccc(S(=O)(=O)NC(=O)c2ccc(N3CCN(CC4=C(c5ccc(Cl)cc5)CC(C)(C)CC4)CC3)cc2Oc2cnc3[nH]ccc3c2)cc1[N+](=O)[O-] [Example 79, (S)-2-((1H-pyrrolo[2,3-b]pyridin-5-yl)oxy)-4-(4-((4′-chloro-5,5-dimethyl-3,4,5,6-tetrahydro-[1,1′-biphenyl]-2-yl)methyl)piperazin-1-yl)-N-((4-((4-(1-(cyclopropylimino)-1-oxido-1λ^6-thiomorpholino)butan-2-yl)amino)-3-nitrophenyl)sulfonyl)benzamide]	7.96	7.85
CC1(C)CCC(CN2CCN(c3ccc(C(=O)NS(=O)(=O)c4ccc(NC(CF)CN5CCP(C)(=O)CC5)c([N+](=O)[O-])c4)c(Oc4cnc5[nH]ccc5c4)c3)CC2)=C(c2ccc(Cl)cc2)C1 (stereo not drawn) [Example 20, 2-((1H-pyrrolo[2,3-b]pyridin-5-yl)oxy)-4-(4-((4′-chloro-5,5-dimethyl-3,4,5,6-tetrahydro-[1,1′-biphenyl]-2-yl)methyl)piperazin-1-yl)-N-((4-((1-fluoro-3-(4-methyl-4-oxido-1,4-azaphosphinan-1-yl)propan-2-yl)amino)-3-nitrophenyl)sulfonyl)benzamide]	6.41	6.48
CC(C)C(=O)N=S1(=O)CCN(C[C@H](C)Nc2ccc(S(=O)(=O)NC(=O)c3ccc(N4CCN(CC5=C(c6ccc(Cl)cc6)CC(C)(C)CC5)CC4)cc3Oc3cnc4[nH]ccc4c3)cc2[N+](=O)[O-])CC1 [Example 66, (S)-2-((1H-pyrrolo[2,3-b]pyridin-5-yl)oxy)-4-(4-((4′-chloro-5,5-dimethyl-3,4,5,6-tetrahydro-[1,1′-biphenyl]-2-yl)methyl)piperazin-1-yl)-N-((4-((1-(1-(isobutyrylimino)-1-oxido-1λ^6-thiomorpholino)propan-2-yl)amino)-3-nitrophenyl)sulfonyl) benzamide]	7.64	7.96
CC1(C)CCC(CN2CCN(c3ccc(C(=O)NS(=O)(=O)c4ccc(NCC5(F)CCC(N=S(C)(C)=O)CC5)c([N+](=O)[O-])c4)c(Oc4cnc5[nH]ccc5c4)c3)CC2)=C(c2ccc(Cl)cc2)C1 (stereo not drawn) [Example 58, 2-((1H-pyrrolo[2,3-b]pyridin-5-yl)oxy)-4-(4-((4′-chloro-5,5-dimethyl-3,4,5,6-tetrahydro-[1,1′-biphenyl]-2-yl)methyl)piperazin-1-yl)-N-((4-(((4-((dimethyl(oxo)-λ^6-sulfanylidene)amino)-1-fluorocyclohexyl)methyl)amino)-3-nitrophenyl)sulfonyl)benzamide]	7.80	8.22
CCS(=O)(CC)=NC1CC(CNc2ccc(S(=O)(=O)NC(=O)c3ccc(N4CCN(CC5=C(c6ccc(Cl)cc6)CC(C)(C)CC5)CC4)cc3Oc3cnc4[nH]ccc4c3)cc2[N+](=O)[O-])C1 (stereo not drawn) [Example 60, 2-((1H-pyrrolo[2,3-b]pyridin-5-yl)oxy)-4-(4-((4′-chloro-5,5-dimethyl-3,4,5,6-tetrahydro-[1,1′-biphenyl]-2-yl)methyl)piperazin-1-yl)-N-((4-(((3-((diethyl(oxo)-λ^6-sulfanylidene)amino)cyclobutyl)methyl)amino)-3-nitrophenyl)sulfonyl)benzamide]	7.31	7.68
C[C@@H](CN1CCS(=O)(=NC#N)CC1)Nc1ccc(S(=O)(=O)NC(=O)c2ccc(N3CCN(CC4=C(c5ccc(Cl)cc5)CC(C)(C)CC4)CC3)cc2Oc2cnc3[nH]ccc3c2)cc1[N+](=O)[O-] [Example 6, (S)-2-((1H-pyrrolo[2,3-b]pyridin-5-yl)oxy)-4-(4-((4′-chloro-5,5-dimethyl-3,4,5,6-tetrahydro-[1,1′-biphenyl]-2-yl)methyl)piperazin-1-yl)-N-((4-((1-(1-(cyanoimino)-1-oxido-1λ^6-thiomorpholino)propan-2-yl)amino)-3-nitrophenyl)sulfonyl)benzamide]	6.82	7.44
CCOC(=O)N=S1(=O)CCN(CC[C@H](C)Nc2ccc(S(=O)(=O)NC(=O)c3ccc(N4CCN(CC5=C(c6ccc(Cl)cc6)CC(C)(C)CC5)CC4)cc3Oc3cnc4[nH]ccc4c3)cc2[N+](=O)[O-])CC1 [Example 85, ethyl (S)-(4-(3-((4-(N-(2-((1H-pyrrolo[2,3-b]pyridin-5-yl)oxy)-4-(4-((4′-chloro-5,5-dimethyl-3,4,5,6-tetrahydro-[1,1′-biphenyl]-2-yl)methyl)piperazin-1-yl)benzoyl)sulfamoyl)-2-nitrophenyl)amino)butyl)-1-oxido-1λ^6-thiomorpholin-1-ylidene) carbamate]	7.52	7.44
CC1(C)CCC(CN2CCN(c3ccc(C(=O)NS(=O)(=O)c4ccc(NCCN5CCS(=O)(=NC6CC6)CC5)c([N+](=O)[O-])c4)c(Oc4cnc5[nH]ccc5c4)c3)CC2)=C(c2ccc(Cl)cc2)C1 [Example 35, 2-((1H-pyrrolo[2,3-b]pyridin-5-yl)oxy)-4-(4-((4′-chloro-5,5-dimethyl-3,4,5,6-tetrahydro-[1,1′-biphenyl]-2-yl)methyl)piperazin-1-yl)-N-((4-((2-(1-(cyclopropylimino)-1-oxido-1λ^6-thiomorpholino)ethyl)amino)-3-nitrophenyl)sulfonyl)benzamide]	6.74	7.22
COC(=O)N=S1(=O)CCC(CNc2ccc(S(=O)(=O)NC(=O)c3ccc(N4CCN(CC5=C(c6ccc(Cl)cc6)CC(C)(C)CC5)CC4)cc3Oc3cnc4[nH]ccc4c3)cc2[N+](=O)[O-])CC1 (stereo not drawn) [Example 61, methyl(4-(((4-(N-(2-((1H-pyrrolo[2,3-b]pyridin-5-yl)oxy)-4-(4-((4′-chloro-5,5-dimethyl-3,4,5,6-tetrahydro-[1,1′-biphenyl]-2-yl)methyl)piperazin-1-yl)benzoyl)sulfamoyl)-2-nitrophenyl)amino)methyl)-1-oxidotetrahydro-2H-1λ^6-thiopyran-1-ylidene) carbamate]	6.79	7.25
C[C@@H](CCN1CCS(=O)(=NC2CC2)CC1)Nc1ccc(S(=O)(=O)NC(=O)c2ccc(N3CCN(CC4=C(c5ccc(Cl)cc5)CC(C)(C)CC4)CC3)cc2Oc2cnc3[nH]ccc3c2)cc1S(=O)(=O)C(F)(F)F [Example 88, (S)-2-((1H-pyrrolo[2,3-b]pyridin-5-yl)oxy)-4-(4-((4′-chloro-5,5-dimethyl-3,4,5,6-tetrahydro-[1,1′-biphenyl]-2-yl)methyl)piperazin-1-yl)-N-((4-((4-(1-(cyclopropylimino)-1-oxido-1λ^6-thiomorpholino)butan-2-yl)amino)-3-((trifluoromethyl)sulfonyl)phenyl)sulfonyl)benzamide]	6.33	6.73
CC1(C)CCC(CN2CCN(c3ccc(C(=O)NS(=O)(=O)c4ccc(NCC5CCC(N=S(C)(C)=O)CO5)c([N+](=O)[O-])c4)c(Oc4cnc5[nH]ccc5c4)c3)CC2)=C(c2ccc(Cl)cc2)C1 (stereo not drawn) [Example 57, 2-((1H-pyrrolo[2,3-b]pyridin-5-yl)oxy)-4-(4-((4′-chloro-5,5-dimethyl-3,4,5,6-tetrahydro-[1,1′-biphenyl]-2-yl)methyl)piperazin-1-yl)-N-((4-(((5-((dimethyl(oxo)-λ^6-sulfanylidene)amino)tetrahydro-2H-pyran-2-yl)methyl)amino)-3-nitrophenyl)sulfonyl)benzamide]	7.52	7.70
CCC(=O)N=S1(=O)CCN(CCNc2ccc(S(=O)(=O)NC(=O)c3ccc(N4CCN(CC5=C(c6ccc(Cl)cc6)CC(C)(C)CC5)CC4)cc3Oc3cnc4[nH]ccc4c3)cc2[N+](=O)[O-])CC1 [Example 67, 2-((1H-pyrrolo[2,3-b]pyridin-5-yl)oxy)-4-(4-((4′-chloro-5,5-dimethyl-3,4,5,6-tetrahydro-[1,1′-biphenyl]-2-yl)methyl)piperazin-1-yl)-N-((3-nitro-4-((2-(1-oxido-1-(propionylimino)-1λ^6-thiomorpholino)ethyl)amino)phenyl)sulfonyl)benzamide]	6.86	7.49
CCN=S1(=O)CCN(CC[C@H](C)Nc2ccc(S(=O)(=O)NC(=O)c3ccc(N4CCN(CC5=C(c6ccc(Cl)cc6)CC(C)(C)CC5)CC4)cc3Oc3cnc4[nH]ccc4c3)cc2[N+](=O)[O-])CC1 [Example 78, (S)-2-((1H-pyrrolo[2,3-b]pyridin-5-yl)oxy)-4-(4-((4′-chloro-5,5-dimethyl-3,4,5,6-tetrahydro-[1,1′-biphenyl]-2-yl)methyl)piperazin-1-yl)-N-((4-((4-(1-(ethylimino)-1-oxido-1λ^6-thiomorpholino)butan-2-yl)amino)-3-nitrophenyl)sulfonyl) benzamide]	7.96	7.80
CC(C)C(=O)N=S1(=O)CCN(CC[C@H](C)Nc2ccc(S(=O)(=O)NC(=O)c3ccc(N4CCN(CC5=C(c6ccc(Cl)cc6)CC(C)(C)CC5)CC4)cc3Oc3cnc4[nH]ccc4c3)cc2[N+](=O)[O-])CC1 [Example 82, (S)-2-((1H-pyrrolo[2,3-b]pyridin-5-yl)oxy)-4-(4-((4′-chloro-5,5-dimethyl-3,4,5,6-tetrahydro-[1,1′-biphenyl]-2-yl)methyl)piperazin-1-yl)-N-((4-((4-(1-(isobutyrylimino)-1-oxido-1λ^6-thiomorpholino)butan-2-yl)amino)-3-nitrophenyl)sulfonyl)benzamide]	7.74	8.00
CCS(=O)(CC)=NC1CCC(CNc2ccc(S(=O)(=O)NC(=O)c3ccc(N4CCN(CC5=C(c6ccc(Cl)cc6)CC(C)(C)CC5)CC4)cc3Oc3cnc4[nH]ccc4c3)cc2[N+](=O)[O-])CC1 (stereo not drawn) [Example 9A, 2-((1H-pyrrolo[2,3-b]pyridin-5-yl)oxy)-4-(4-((4′-chloro-5,5-dimethyl-3,4,5,6-tetrahydro-[1,1′-biphenyl]-2-yl)methyl)piperazin-1-yl)-N-((4-((((1r,4r)-4-((diethyl(oxo)-λ^6-sulfanylidene)amino)cyclohexyl)methyl)amino)-3-nitrophenyl)sulfonyl)benzamide]	7.17	8.40
